Measurements taken from PMC10786919, “Design-rules for stapled peptides with in vivo activity and their application to Mdm2/X antagonists” (Nature Communications, 2024).
≈ marks a conversion by molar mass, not a printed value. Positions of bridges follow the written chain, without caps; N, C: chain ends. Non-standard residues stand in square brackets, D forms with d. Residues, ends and D or L forms follow the SMILES beside them. Lys(N3) = [N-]=[N+]=NCCCC[C@H](N)C(=O)O; R8 = C=CCCCCCC[C@@](C)(N)C(=O)O; Cba = N[C@@H](CC1CCC1)C(=O)O; S5 = C=CCCC[C@](C)(N)C(=O)O; βAla = NCCC(=O)O

Columns and labels:
[1] = Lactate dehydrogenase (LDH) release assay; assay type: cell-based; conditions: LDH: Cytotoxicity assay EC50
Summary of the method: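 LDH release, fluorometric membrane-integrity read-out; HCT116 with stable p53-responsive β-lactamase reporter; 8000 cells/well; 0.5% DMSO final; geometric mean, n≥3 biological replicates.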

[2] = Solubility assay (kinetic solubility, PBS pH 7); assay type: physicochemical; conditions: pH 7, PBS; for solubility kinetic: pH 7, aqueous buffer, kinetic from dmso stock, read-out: Solubility
Summary of the method: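 Quantitation uses an external standard at 100 µM, prepared from 10 mM stock in acetonitrile:methanol:DMSO (10:80:10). Solubility (µM) = (peak area of sample ÷ peak area of standard) × standard concentration.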

in vitro = conditions: Nanoclick permeability assay EC50
Summary of the method: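 Azido-peptide permeability was read as loss of NanoBRET signal (donor 450 nm, acceptor 610 nm) after adding NanoBret618-azide at 10 μM final.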

[3] = Experimental LogD (partition coefficient); conditions: not stated, Partition Coeff LogD

Compound	EC50 [1] [nM]	solubility kinetic [2] [µM]	cell entry EC50 (in vitro) [nM]	EPSA (physchem) [A^2]	logD [3]	Solubility [2]
CC(=O)N[C@@H](CCCCN=[N+]=[N-])C(=O)NCCC(=O)N[C@@H](CCCNC(=N)N)C(=O)N[C@@H](Cc1ccc(O)cc1)C(=O)N[C@@H](Cc1ccccc1)C(=O)N[C@]1(C)CCCCCCC=CCCC[C@@](C)(C(=O)N[C@@H](CO)C(=O)N[C@@H](C)C(=O)N[C@@H](Cc2ccccc2)C(N)=O)NC(=O)[C@H](CC2CCC2)NC(=O)[C@H](CCC(N)=O)NC(=O)[C@H](C)NC(=O)[C@H](Cc2c[nH]c3ccccc23)NC(=O)[C@H](Cc2ccc(O)cc2)NC(=O)[C@H](CCC(=O)O)NC1=O [MP-5546] (Ac-[Lys(N3)][βAla]RYF[R8]EYWAQ[Cba][S5]SAF-NH2; staple 6-13)	> 50600	2 (≈ 4.3 µg/mL)	511	256	3.2	–
CC(=O)N[C@@H](CCCCN=[N+]=[N-])C(=O)NCCC(=O)N(C)[C@@H](CC(C)C)C(=O)N[C@H](C(=O)N[C@@H](Cc1ccccc1)C(=O)N[C@]1(C)CCCCCCC=CCCC[C@@](C)(C(=O)N[C@@H](CO)C(=O)N[C@@H](C)C(=O)N[C@@H](C)C(N)=O)NC(=O)[C@H](CC2CCC2)NC(=O)[C@H](CCC(N)=O)NC(=O)[C@H](C)NC(=O)[C@H](Cc2c[nH]c3ccccc23)NC(=O)[C@H](Cc2ccc(O)cc2)NC(=O)[C@H](CCC(=O)O)NC1=O)[C@@H](C)O [MP-189]	> 50000	122 (≈ 242 µg/mL)	865	226	3.04	–
CC(=O)N[C@@H](CCCCN=[N+]=[N-])C(=O)NCCC(=O)N[C@@H](CCCNC(=N)N)C(=O)N[C@H](C(=O)N[C@@H](Cc1ccccc1)C(=O)N[C@]1(C)CCCCCCC=CCCC[C@@](C)(C(=O)N[C@@H](CO)C(=O)N[C@@H](C)C(=O)N[C@@H](C)C(N)=O)NC(=O)[C@H](CC2CCC2)NC(=O)[C@H](CCCNC(=N)N)NC(=O)[C@H](C)NC(=O)[C@H](Cc2c[nH]c3ccccc23)NC(=O)[C@H](Cc2ccccc2)NC(=O)[C@H](CCC(=O)O)NC1=O)[C@@H](C)O [MP-538] (Ac-[Lys(N3)][βAla]RTF[R8]EFWAR[Cba][S5]SAA-NH2; staple 6-13)	6780	5 (≈ 10.1 µg/mL)	230	223	3.16	–
CC(C)C[C@@H]1NC(=O)[C@H](C)NC(=O)[C@H](Cc2c[nH]c3ccccc23)NC(=O)[C@H](Cc2ccc(O)cc2)NC(=O)[C@H](CCC(=O)O)NC(=O)[C@](C)(NC(=O)[C@H](Cc2ccccc2)NC(=O)[C@H](CO)NC(=O)[C@@H](NC(=O)[C@H](CO)NC(=O)CNC(=O)[C@H](CO)NC(=O)[C@@H](N)CCCCN=[N+]=[N-])[C@@H](C)O)CCCCCCC=CCCC[C@@](C)(C(N)=O)NC(=O)[C@H](CC(C)C)NC1=O [MP-75496]	> 50600	10 (≈ 18.1 µg/mL)	518	236	2.46	–
CC(=O)N[C@@H](CCCCN=[N+]=[N-])C(=O)NCCC(=O)N[C@@H](Cc1ccc(O)cc1)C(=O)N[C@H](C(=O)N[C@@H](Cc1ccccc1)C(=O)N[C@]1(C)CCCCCCC=CCCC[C@@](C)(C(=O)N[C@@H](CO)C(=O)N[C@@H](C)C(=O)N[C@@H](C)C(N)=O)NC(=O)[C@H](CC2CCC2)NC(=O)[C@H](Cc2c[nH]c3ccccc23)NC(=O)[C@H](C)NC(=O)[C@H](Cc2c[nH]c3ccccc23)NC(=O)[C@H](Cc2ccc(O)cc2)NC(=O)[C@H](Cc2c[nH]c3ccccc23)NC1=O)[C@@H](C)O [MP-540] (Ac-[Lys(N3)][βAla]YTF[R8]WYWAW[Cba][S5]SAA-NH2; staple 6-13)	> 50600	2 (≈ 4.27 µg/mL)	94.2	253	3.67	–
CC(=O)N[C@@H](CCCCN=[N+]=[N-])C(=O)NCCC(=O)N[C@@H](CC(C)C)C(=O)NC(C)(C)C(=O)N[C@@H](Cc1ccccc1)C(=O)N[C@]1(C)CCCCCCC=CCCC[C@@](C)(C(=O)N[C@@H](CO)C(=O)N[C@@H](C)C(=O)N[C@@H](C)C(N)=O)NC(=O)[C@H](CC2CCC2)NC(=O)[C@H](CCC(N)=O)NC(=O)[C@H](C)NC(=O)[C@H](Cc2c[nH]c3ccccc23)NC(=O)[C@H](Cc2ccc(O)cc2)NC(=O)[C@H](CCC(=O)O)NC1=O [MP-169]	> 50000	61.5 (≈ 120 µg/mL)	253	227	3.06	–
CC(=O)N[C@@H](CCCCN=[N+]=[N-])C(=O)NCCC(=O)N[C@@H](CCCNC(=N)N)C(=O)N[C@H](C(=O)N[C@@H](Cc1ccccc1)C(=O)N[C@]1(C)CCCCCCC=CCCC[C@@](C)(C(=O)N[C@@H](CO)C(=O)N[C@@H](CCCNC(=N)N)C(=O)N[C@@H](C)C(N)=O)NC(=O)[C@H](CC2CCC2)NC(=O)[C@H](CCC(N)=O)NC(=O)[C@H](CCCNC(=N)N)NC(=O)[C@H](Cc2c[nH]c3ccccc23)NC(=O)[C@H](Cc2ccc(O)cc2)NC(=O)[C@H](CCC(=O)O)NC1=O)[C@@H](C)O [MP-539] (Ac-[Lys(N3)][βAla]RTF[R8]EYWRQ[Cba][S5]SRA-NH2; staple 6-13)	13400	97.5 (≈ 213 µg/mL)	293	222	2.4	–
CC(=O)N[C@@H](CCCCN=[N+]=[N-])C(=O)NCCC(=O)N[C@@H](CC(C)C)C(=O)N[C@@H](Cc1c[nH]c2ccccc12)C(=O)N[C@@H](Cc1ccccc1)C(=O)N[C@]1(C)CCCCCCC=CCCC[C@@](C)(C(=O)N[C@@H](CO)C(=O)N[C@@H](C)C(=O)N[C@@H](C)C(N)=O)NC(=O)[C@H](CC2CCC2)NC(=O)[C@H](CCC(N)=O)NC(=O)[C@H](C)NC(=O)[C@H](Cc2c[nH]c3ccccc23)NC(=O)[C@H](Cc2ccc(O)cc2)NC(=O)[C@H](CCC(=O)O)NC1=O [MP-1184] (Ac-[Lys(N3)][βAla]LWF[R8]EYWAQ[Cba][S5]SAA-NH2; staple 6-13)	> 50000	28.5 (≈ 58.6 µg/mL)	360	239	3.21	–
CC(=O)N[C@@H](CCCCN=[N+]=[N-])C(=O)NCCC(=O)N[C@@H](CC(C)C)C(=O)N[C@H](C(=O)N[C@@H](Cc1ccccc1)C(=O)N[C@]1(C)CCCCCCC=CCCC[C@@](C)(C(=O)N[C@@H](CO)C(=O)N[C@@H](C)C(=O)N[C@@H](C)C(N)=O)NC(=O)[C@H](CC2CCC2)NC(=O)[C@H](CCC(N)=O)NC(=O)C(C)(C)NC(=O)[C@H](Cc2c[nH]c3ccccc23)NC(=O)[C@H](Cc2ccc(O)cc2)NC(=O)[C@H](CCC(=O)O)NC1=O)[C@@H](C)O [MP-170]	> 50000	92.5 (≈ 184 µg/mL)	549	225	2.85	–
CC(=O)N[C@@H](CCCCN=[N+]=[N-])C(=O)NCCC(=O)N[C@@H](CC(C)C)C(=O)N[C@H](C(=O)N[C@@H](Cc1ccccc1)C(=O)N[C@]1(C)CCCCCCC=CCCC[C@@](C)(C(=O)N[C@@H](CO)C(=O)N[C@@H](C)C(=O)N[C@@H](C)C(N)=O)NC(=O)[C@H](CC2CCC2)NC(=O)[C@H](CCC(N)=O)NC(=O)[C@H](CCC(=O)O)NC(=O)[C@H](Cc2c[nH]c3ccccc23)NC(=O)[C@H](Cc2ccc(O)cc2)NC(=O)[C@H](CCC(=O)O)NC1=O)[C@@H](C)O [MP-180]	> 50000	93 (≈ 189 µg/mL)	732	235	2.38	–
CSCC[C@H](NC(=O)[C@H](CO)NC(=O)[C@]1(C)CCCC=CCCCCCC[C@@](C)(NC(=O)[C@H](Cc2ccccc2)NC(=O)[C@H](Cc2ccc(O)cc2)NC(=O)[C@H](CC(C)C)NC(=O)CCNC(=O)[C@H](CCCCN=[N+]=[N-])NC(C)=O)C(=O)N[C@@H](CCC(=O)O)C(=O)N[C@@H](Cc2ccc(O)cc2)C(=O)N[C@@H](Cc2c[nH]c3ccccc23)C(=O)N[C@@H](C)C(=O)N[C@@H](CCC(N)=O)C(=O)N[C@@H](CC2CCC2)C(=O)N1)C(=O)N[C@@H](CC(C)C)C(N)=O [MP-543] (Ac-[Lys(N3)][βAla]LYF[R8]EYWAQ[Cba][S5]SML-NH2; staple 6-13)	> 50600	30.5 (≈ 65.1 µg/mL)	139	234	3.56	–
CC(=O)N[C@@H](CCCCN=[N+]=[N-])C(=O)NCCC(=O)N[C@@H](CC(C)C)C(=O)N(C)[C@H](C(=O)N[C@@H](Cc1ccccc1)C(=O)N[C@]1(C)CCCCCCC=CCCC[C@@](C)(C(=O)N[C@@H](CO)C(=O)N[C@@H](C)C(=O)N[C@@H](C)C(N)=O)NC(=O)[C@H](CC2CCC2)NC(=O)[C@H](CCC(N)=O)NC(=O)[C@H](C)NC(=O)[C@H](Cc2c[nH]c3ccccc23)NC(=O)[C@H](Cc2ccc(O)cc2)NC(=O)[C@H](CCC(=O)O)NC1=O)[C@@H](C)O [MP-190]	> 50000	116 (≈ 229 µg/mL)	420	219	2.73	–
CC(=O)N[C@@H](CCCCN=[N+]=[N-])C(=O)NCCC(=O)N[C@@H](CC(C)C)C(=O)N[C@H](C(=O)N[C@@H](Cc1ccccc1)C(=O)N[C@]1(C)CCCCCCC=CCCC[C@@](C)(C(=O)N[C@@H](CO)C(=O)N[C@@H](Cc2ccccc2)C(=O)N[C@@H](Cc2ccccc2)C(N)=O)NC(=O)[C@H](CC2CCC2)NC(=O)[C@H](CCC(N)=O)NC(=O)[C@H](C)NC(=O)[C@H](Cc2c[nH]c3ccccc23)NC(=O)[C@H](Cc2ccc(O)cc2)NC(=O)[C@H](Cc2c[nH]c3ccccc23)NC1=O)[C@@H](C)O [MP-542] (Ac-[Lys(N3)][βAla]LTF[R8]WYWAQ[Cba][S5]SFF-NH2; staple 6-13)	> 50600	–	93.2	242	4.46	Poorly Behaved
